Values after ≈ are worked out from the molar mass of the structure shown. Active and inactive are the calls of the source. Some results are limits rather than exact numbers.

This note sets out measurements from ChEMBL document CHEMBL1151474, “Replication of Colonic Crohn's Disease Mucosal Escherichia coli Isolates within Macrophages and Their Susceptibility to Antibiotics” (Antimicrob Agents Chemother, 2008).

Data set [1] has as its system Escherichia coli. Put plainly: Antibacterial activity against Escherichia coli isolate HM605 isolated from colonic mucosal biopsies of patient with Crohn's disease.
A short description of data set [2]: Cmax in patient with Crohn's disease at 500 mg administered orally. Particulars: human, in vivo, po. In kind it is ADME, organism-based. Also noted: dose 500 mg, route oral.
Data set [3] concerns Escherichia coli. Put plainly: Antibacterial activity against Escherichia coli isolate HM580 isolated from colonic mucosal biopsies of patient with Crohn's disease after 24 hrs by Etest antibiotic concentration gradient method. Type of data set: functional. Particulars: isolate HM580, 24 h.
In data set [4] the test system is Escherichia coli. Put plainly: Antibacterial activity against mucosa-associated Escherichia coli isolate HM454 isolated from patient with irritable bowel syndrome or sporadic polyps after 24 hrs by Etest antibiotic concentration gradient method. Type of data set: functional. Particulars: isolate HM454, 24 h.
The test system of data set [5] is Escherichia coli. Put plainly: Antibacterial activity Escherichia coli isolate HM419 isolated from ileo-colonic mucosal biopsies of patient with Crohn's disease after 24 hrs by Etest antibiotic concentration gradient method. Type of data set: functional. Particulars: isolate HM419, 24 h.
The subject of the next data set is J774.A1. Put plainly: Cytotoxicity against mouse J774A1 cells assessed as release of adenylate kinase at 100 ug/ml after 3 hrs […] relative to control. Type of data set: cell-based. Particulars: j774.a1, 3 h.
The subject of data set [6] is Escherichia coli. Put plainly: Antibacterial activity against gentamicin-treated internalized Escherichia coli isolate HM605 isolated from colonic mucosal biopsies of patient with Crohn's disease in mouse J774A1 cells assessed as intracellular killing of bacteria at 0.4 ug/ml after 3 hrs. Type of data set: functional, J774.A1.
The subject of data set [7] is Escherichia coli. Put plainly: Antibacterial activity against Escherichia coli isolate HM605 isolated from colonic mucosal biopsies of patient with Crohn's disease after 24 hrs by Etest antibiotic concentration gradient method. Particulars: isolate HM605, 24 h. In kind it is functional.
The test system of data set [8] is Escherichia coli. Put plainly: Antibacterial activity Escherichia coli isolate HM413 isolated from ileo-colonic mucosal biopsies of patient with Crohn's disease after 24 hrs by Etest antibiotic concentration gradient method. Type of data set: functional. Particulars: isolate HM413, 24 h.
The subject of data set [9] is Escherichia coli. Put plainly: Antibacterial activity against Escherichia coli isolate HM154 isolated from colonic mucosal biopsies of patient with Crohn's disease after 24 hrs by Etest antibiotic concentration gradient method. Particulars: isolate HM154, 24 h. In kind it is functional.
In data set [10] the test system is Escherichia coli. Put plainly: Antibacterial activity against Escherichia coli isolate HM615 isolated from colonic mucosal biopsies of patient with Crohn's disease after 24 hrs by Etest antibiotic concentration gradient method. In kind it is functional. Particulars: isolate HM615, 24 h.
Data set [11] relates to Escherichia coli. Put plainly: Antibacterial activity against Escherichia coli isolate HM95 isolated from ileal mucosal biopsies of patient with Crohn's disease after 24 hrs by Etest antibiotic concentration gradient method. Type of data set: functional. Particulars: isolate HM95, 24 h.
Data set [12] relates to Escherichia coli. Put plainly: Antibacterial activity against mucosa-associated Escherichia coli isolate HM456 isolated from patient with irritable bowel syndrome or sporadic polyps after 24 hrs by Etest antibiotic concentration gradient method. Type of data set: functional. Particulars: isolate HM456, 24 h.
Data set [13] relates to Escherichia coli. Put plainly: Antibacterial activity against extracellular Escherichia coli isolate HM605 isolated from colonic mucosal biopsies of patient with Crohn's disease at 0.01 to 10 ug/ml after 3 hrs. Type of data set: functional, organism-based.
For data set [14], the system named is Escherichia coli. Put plainly: Antibacterial activity against mucosa-associated Escherichia coli isolate HM428 isolated from patient with irritable bowel syndrome or sporadic polyps after 24 hrs by Etest antibiotic concentration gradient method. Particulars: isolate HM428, 24 h. In kind it is functional.
Data set [15] has as its system Escherichia coli. Put plainly: Antibacterial activity against Escherichia coli isolates isolated from patients with Crohn's disease at 15 ug/disk by susceptibility testing disk method. Type of data set: functional.
For data set [16], the system named is Escherichia coli. Put plainly: Antibacterial activity against gentamicin-treated internalized Escherichia coli isolate HM605 in mouse J774A1 cells isolated from colonic mucosal biopsies of patient with Crohn's disease assessed as intracellular killing of bacteria at 0.1 to 100 ug/ml after 24 hrs. Type of data set: functional, organism-based. Particulars: J774.A1.

Data set [17] deals with Escherichia coli. Put plainly: Antibacterial activity against Escherichia coli isolate HM605 isolated from colonic mucosal biopsies of patient with Crohn's disease assessed as killing of bacteria at 100 ug/ml. Type of data set: functional.
For data set [18], the system named is Escherichia coli. Put plainly: Antibacterial activity against extracellular Escherichia coli isolate HM605 isolated from colonic mucosal biopsies of patient with Crohn's disease at 0.1 to 100 ug/ml after 3 hrs. Type of data set: functional, organism-based.
The test system of data set [19] is Escherichia coli. Put plainly: Antibacterial activity against Escherichia coli ATCC 25922 after 24 hrs by Etest antibiotic concentration gradient method. Type of data set: functional, organism-based.
Data set [20] has as its system Escherichia coli. Put plainly: Antibacterial activity against gentamicin-treated internalized Escherichia coli isolate HM605 in mouse J774A1 cells isolated from colonic mucosal biopsies of patient with Crohn's disease assessed as intracellular killing of bacteria at 10% compound Cmax after 3 hrs. In kind it is functional, J774.A1.
Data set [21] relates to Escherichia coli. Put plainly: Antibacterial activity against gentamicin-treated internalized Escherichia coli isolate LF82 in mouse J774A1 cells isolated from chronic ileal lesions of patient with Crohn's disease assessed as intracellular killing of bacteria at 10% compound Cmax after 3 hrs. In kind it is functional, J774.A1.
The subject of data set [22] is Escherichia coli. Put plainly: Antibacterial activity against gentamicin-treated internalized Escherichia coli isolate HM605 in mouse J774A1 cells isolated from colonic mucosal biopsies of patient with Crohn's disease assessed as intracellular killing of bacteria at 0.1 to 100 ug/ml after 3 hrs. Particulars: J774.A1. In kind it is functional, organism-based.
Data set [23] relates to Escherichia coli. Put plainly: Antibacterial activity against mucosa-associated Escherichia coli isolates isolated from patients with Crohn's disease by disk diffusion method. Type of data set: functional.
In data set [24] the test system is Escherichia coli. Put plainly: Antibacterial activity against gentamicin-treated internalized Escherichia coli isolate HM605 in mouse J774A1 cells isolated from colonic mucosal biopsies of patient with Crohn's disease assessed as intracellular killing of bacteria at 0.1 to 100 ug/ml after 6 hrs. Type of data set: functional, organism-based. Particulars: J774.A1.

Data set [25] has as its system Escherichia coli. Put plainly: Antibacterial activity against gentamicin-treated internalized Escherichia coli isolate HM615 in mouse J774A1 cells isolated from colonic mucosal biopsies of patient with Crohn's disease assessed as intracellular killing of bacteria at 10% compound Cmax after 3 hrs. Type of data set: functional, J774.A1.
For data set [26], the system named is Escherichia coli. Put plainly: Antibacterial activity against gentamicin-treated internalized Escherichia coli isolate HM605 isolated from colonic mucosal biopsies of patient with Crohn's disease in mouse J774A1 cells assessed as intracellular killing of bacteria at 3.2 ug/ml after 3 hrs. Type of data set: functional, J774.A1.
Data set [27] deals with Escherichia coli. Put plainly: Antibacterial activity against extracellular Escherichia coli isolate HM605 isolated from colonic mucosal biopsies of patient with Crohn's disease assessed as colony count at 0.1 to 100 ug/ml after 3 hrs. In kind it is functional, organism-based.
The nature of data set [28]: Cmax in healthy human at 500 mg administered orally. Type of data set: ADME, organism-based. More on the design: dose 500 mg, route oral. Particulars: in vivo, po.
Data set [29] deals with Escherichia coli. Put plainly: Antibacterial activity against gentamicin-treated internalized Escherichia coli isolate HM580 in mouse J774A1 cells isolated from colonic mucosal biopsies of patient with Crohn's disease assessed as intracellular killing of bacteria at 10% compound Cmax after 3 hrs. Type of data set: functional, J774.A1.
Data set [30] can be described thus: Cmax in immunodeficiency virus-infected patient at 800 mg, po by high-pressure liquid chromatography. Particulars: human, in vivo.
Data set [31] relates to Escherichia coli. Put plainly: Antibacterial activity against gentamicin-treated internalized Escherichia coli isolate HM605 in mouse J774A1 cells isolated from colonic mucosal biopsies of patient with Crohn's disease assessed as intracellular killing of bacteria at 18 ug/ml after 6 hrs. Particulars: J774.A1. In kind it is functional, organism-based.
Data set [32] deals with Escherichia coli. Put plainly: Antibacterial activity against gentamicin-treated internalized Escherichia coli isolate HM605 in mouse J774A1 cells isolated from colonic mucosal biopsies of patient with Crohn's disease assessed as intracellular killing of bacteria at 18 ug/ml after 3 hrs. Type of data set: functional, organism-based. Particulars: J774.A1.
The test system of data set [33] is Escherichia coli. Put plainly: Antibacterial activity against gentamicin-treated internalized Escherichia coli isolate HM605 in mouse J774A1 cells isolated from colonic mucosal biopsies of patient with Crohn's disease assessed as reduction in intracellular bacterial viability at 18 ug/ml after 24 hrs. Particulars: J774.A1. In kind it is functional, organism-based.

The species named for a further data set is Homo sapiens. Put plainly: Cmax in human. In kind it is ADME, organism-based. Particulars: in vivo.

With `CC[C@H]1OC(=O)[C@H](C)[C@@H](O[C@H]2C[C@@](C)(OC)[C@@H](O)[C@H](C)O2)[C@H](C)[C@@H](O[C@@H]2O[C@H](C)C[C@H](N(C)C)[C@H]2O)[C@](C)(O)C[C@@H](C)CN(C)[C@H](C)[C@@H](O)[C@]1(C)O` [AZITHROMYCIN], the MBC (in general, the smallest concentration meeting the test's criterion for killing) against Escherichia coli [1] came to 5 µg/mL (≈ 6.68 µM). The concentration in data set [2] peaked (Cmax) at 400 ng/mL. In addition, the MIC (in general, the least concentration at which growth counts as inhibited) was at most 2 µg/mL against Escherichia coli [3]; at most 2 µg/mL against Escherichia coli [4]; at most 2 µg/mL against Escherichia coli [5]; 3 µg/mL (≈ 4.01 µM) against Escherichia coli [7]; at most 2 µg/mL in the data set on Escherichia coli [8]; at most 2 µg/mL in the data set on Escherichia coli [9]. Further, the MIC against Escherichia coli [10], against Escherichia coli [11], with Escherichia coli [12] and against Escherichia coli [14] was at most 2 µg/mL in each case. Moreover, the Activity with J774.A1 is on record as 90%; in the data set with Escherichia coli [6], 41%; in the data set on Escherichia coli [15] it was 78%. The outcome in the data set on Escherichia coli [13] was Active.
Turning to `CC1(C)S[C@@H]2[C@H](NC(=O)[C@H](N)c3ccccc3)C(=O)N2[C@H]1C(=O)O` [AMPICILLIN], in the data set with Escherichia coli [1], the MBC is above 100 µg/mL. The result in the data set with Escherichia coli [16], in the data set with Escherichia coli [22] and with Escherichia coli [24] was inactive. The Activity was found to be 90% in the data set on J774.A1; 99.8% with Escherichia coli [17]; 20.4% in the data set on Escherichia coli [20]; 10.9% in the data set with Escherichia coli [21]; 95% in the data set with Escherichia coli [23]; 13.8% in the data set with Escherichia coli [25]. Moreover, the Activity came to 11.1% with Escherichia coli [26] and 9.6% with Escherichia coli [29]. Further, the result in the data set with Escherichia coli [18], in the data set on Escherichia coli [19], with Escherichia coli [27] and in the data set with Escherichia coli [13] was Active. The compound also yielded a minimal inhibitory concentration (MIC) in the data set on Escherichia coli [7] above 256 µg/mL. In addition, the concentration in data set [28] peaked (Cmax) at 3200 ng/mL.
On to `Cc1cc(NS(=O)(=O)c2ccc(N)cc2)no1` [SULFAMETHOXAZOLE], for which the Activity is given as 90% with J774.A1; 39.8% in the data set on Escherichia coli [20]; 63.2% in the data set on Escherichia coli [21]; 71.5% with Escherichia coli [25]; 58.7% in the data set with Escherichia coli [29]. Also, the result with Escherichia coli [19] was Active. The compound further showed an MIC against Escherichia coli [7] above 1020 µg/mL. Also, the Cmax (commonly the highest concentration seen after dosing) in [30] is 40000 ng/mL.
In the case of GENTAMICIN [listing 1 of 2 here], the Activity was determined as 0.3% in the data set on Escherichia coli [31], 7.8% in the data set with Escherichia coli [32], 54.8% in the data set with Escherichia coli [33] and 100% in the data set with Escherichia coli [23].
As to GENTAMICIN [listing 2 of 2 here], the Activity in the data set on J774.A1 is listed as 90%. In addition, the Cmax in the data set filed under Homo sapiens was determined as 18000 ng/mL.
